Assay results: the NIST ThermoML archive (doi:10.1021/je900909s)
“And” between values parts separate entries of the source, which are not always exact repeats. Identical values can stand only once. ± gives the expanded uncertainty stated by the source.

Assay: cn = amount concentration of the nth substance listed, in mol/dm3
Conditions: 101 kPa, Liquid, c1 = 2; for speed of sound: Frequency=4 MHz, Linear variable-path acoustic interferometer

Compound | speed of sound (298.15 K) [m/s] | mass density (298.15 K) [kg/m3] | speed of sound (303.15 K) [m/s] | mass density (303.15 K) [kg/m3] | speed of sound (308.15 K) [m/s] | mass density (308.15 K) [kg/m3] | speed of sound (313.15 K) [m/s] | mass density (313.15 K) [kg/m3] | speed of sound (318.15 K) [m/s] | mass density (318.15 K) [kg/m3] | speed of sound (323.15 K) [m/s] | mass density (323.15 K) [kg/m3] | speed of sound (328.15 K) | mass density (328.15 K) [kg/m3]
O=[N+]([O-])[O-].[Na+] [sodium nitrate] + O | 1581.4 ± 2.1 | 1104.2 ± 1.5 | 1588.6 ± 2.1 | 1101.7 ± 1.5 | 1593.2 ± 2.1 | 1099 ± 1.6 | 1596.3 ± 2.1 | 1096.3 ± 1.7 | 1600.1 ± 2.1 | 1093.4 ± 1.7 | 1604.3 ± 2.1 | 1090.4 ± 1.8 | 1607.1 ± 2.1 m/s | 1087.2 ± 1.8
[Cl-].[Na+] [sodium chloride] + O | 1614.3 ± 2.1 | 1075 ± 1.4 | 1620.9 ± 2.1 | 1073 ± 1.5 | 1627.6 ± 2.1 | 1070.7 ± 1.5 | 1633.7 ± 2.1 | 1068.3 ± 1.6 | 1637.3 ± 2.1 | 1065.7 ± 1.7 | 1640.5 ± 2.2 | 1063.1 ± 1.7 | 1643.7 ± 2.2 m/s and 1642.7 ± 2.2 m/s | 1060.2 ± 1.8
